Structures are written as SMILES. Peptide text beside a SMILES is read from it. Bounds are passed on as bounds.

The values that follow come from patent US6936585B2, “Corticotropin releasing factor 2 receptor agonists” (priority 2002, dated 2005).

For one assay, the target named is T1, CRF1R (Homo sapiens, UniProt P34998).
T1 sequence (P34998 24-415): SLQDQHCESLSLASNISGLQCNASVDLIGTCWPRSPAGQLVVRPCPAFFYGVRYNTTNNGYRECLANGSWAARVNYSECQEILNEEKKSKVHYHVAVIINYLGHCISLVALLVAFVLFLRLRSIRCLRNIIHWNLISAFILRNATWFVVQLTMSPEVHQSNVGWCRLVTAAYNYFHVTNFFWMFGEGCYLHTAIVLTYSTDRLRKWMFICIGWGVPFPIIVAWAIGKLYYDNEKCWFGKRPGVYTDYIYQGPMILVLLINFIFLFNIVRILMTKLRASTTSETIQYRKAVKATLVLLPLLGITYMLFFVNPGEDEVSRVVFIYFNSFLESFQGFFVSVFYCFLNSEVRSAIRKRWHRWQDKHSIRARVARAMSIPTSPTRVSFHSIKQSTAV
Nature of the assay: CRF1R agonist activation (EC50 / Emax), called comparative CRF binding. Format: cell-based. The note with it: for Emax: read-out: CRF1R Emax; for EC50: read-out: CRF1R EC50. The essentials: (§1)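 Receptor-expressing cells are contacted with test peptide or the vehicle it is dissolved in. Lysates are then assayed for cAMP, or expression of a CRE-coupled reporter is quantitated. Engineered cells carrying receptor-G-protein fusions may replace full-length receptors.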

In a further assay the target is T2, CRF2R (Homo sapiens, UniProt Q13324).
T2 sequence (Q13324 1-411): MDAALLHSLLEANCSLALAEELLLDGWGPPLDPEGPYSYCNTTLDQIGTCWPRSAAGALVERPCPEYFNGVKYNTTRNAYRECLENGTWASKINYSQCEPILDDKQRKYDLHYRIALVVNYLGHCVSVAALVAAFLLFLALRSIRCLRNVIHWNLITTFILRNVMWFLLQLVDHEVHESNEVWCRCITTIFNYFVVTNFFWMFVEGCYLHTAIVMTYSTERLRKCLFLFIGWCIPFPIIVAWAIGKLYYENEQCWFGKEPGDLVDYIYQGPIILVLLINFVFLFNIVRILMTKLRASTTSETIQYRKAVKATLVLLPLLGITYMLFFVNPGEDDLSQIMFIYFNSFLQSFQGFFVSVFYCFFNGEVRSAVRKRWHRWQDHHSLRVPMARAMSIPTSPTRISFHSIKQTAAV
Nature of the assay: CRF2R agonist activation (EC50 / Emax), called comparative CRF binding. It is filed as cell-based. As to conditions: for Emax: read-out: CRF2R Emax; for EC50: read-out: CRF2R EC50. Put shortly:
as §1

For the compound `CC[C@H](C)[C@H](NC(=O)[C@H](CCC(=O)O)NC(=O)[C@H](C)NC(=O)[C@H](CC(N)=O)NC(=O)[C@H](CCC(N)=O)NC(=O)[C@H](CCC(=O)O)NC(=O)[C@H](C)NC(=O)[C@H](CCCNC(=N)N)NC(=O)[C@H](CCC(=O)O)NC(=O)[C@H](CCCNC(=N)N)NC(=O)[C@H](CCC(N)=O)NC(=O)[C@H](CO)NC(=O)[C@H](CCC(N)=O)NC(=O)[C@@H](NC(=O)[C@H](CCCCN)NC(=O)[C@H](CCC(=O)O)NC(=O)[C@H](CC(C)C)NC(=O)[C@H](CCC(=O)O)NC(=O)[C@H](CC(C)C)NC(=O)[C@H](CC(C)C)NC(=O)[C@@H](NC(=O)[C@H](CCCNC(=N)N)NC(=O)[C@H](CC(C)C)NC(=O)[C@H](CC(C)C)NC(=O)[C@H](CC(C)C)NC(=O)[C@H](CC(C)C)NC(=O)[C@@H]1CCCN1C(=O)[C@H](CC(C)C)NC(=O)[C@H](CC(=O)O)NC(=O)[C@@H](NC(=O)[C@H](CO)NC(=O)[C@H](CC(C)C)NC(=O)[C@H](CO)NC(=O)[C@@H]1CCCN1C(=O)[C@H](CC(N)=O)NC(=O)[C@@H](N)CC(=O)O)[C@@H](C)CC)[C@@H](C)O)[C@@H](C)O)C(=O)N[C@@H](Cc1ccccc1)C(=O)N[C@@H](C)C(=O)N[C@@H](CCC(=O)O)C(=O)N[C@H](C(N)=O)C(C)C` [compound 323] (H-DNPSLSIDLPLLLLRTLLELEKTQSQRERAEQNAEIFAEV-NH2; N-terminus assumed), the Emax at CRF1R is 36.9%; on CRF2R, 100%.

For the compound `CC[C@H](C)[C@H](NC(=O)[C@H](CCC(N)=O)NC(=O)[C@H](C)NC(=O)[C@H](CC(N)=O)NC(=O)[C@H](CCC(N)=O)NC(=O)[C@H](CCC(=O)O)NC(=O)[C@H](C)NC(=O)[C@H](CCCNC(=N)N)NC(=O)[C@H](CCC(=O)O)NC(=O)[C@H](CCCNC(=N)N)NC(=O)[C@H](CCC(N)=O)NC(=O)[C@H](CO)NC(=O)[C@H](CCC(N)=O)NC(=O)[C@@H](NC(=O)[C@H](CCCCN)NC(=O)[C@H](CCC(=O)O)NC(=O)[C@H](CC(C)C)NC(=O)[C@H](CCC(=O)O)NC(=O)[C@H](CC(C)C)NC(=O)[C@H](CC(C)C)NC(=O)[C@@H](NC(=O)[C@H](CCCNC(=N)N)NC(=O)[C@H](CC(C)C)NC(=O)[C@H](CC(C)C)NC(=O)[C@H](CC(C)C)NC(=O)[C@H](CC(C)C)NC(=O)[C@@H]1CCCN1C(=O)[C@H](CC(C)C)NC(=O)[C@H](CC(=O)O)NC(=O)[C@@H](NC(=O)[C@H](CO)NC(=O)[C@H](CC(C)C)NC(=O)[C@H](CO)NC(=O)[C@@H]1CCCN1C(=O)[C@H](CC(N)=O)NC(=O)[C@@H](N)CC(=O)O)[C@@H](C)CC)[C@@H](C)O)[C@@H](C)O)C(=O)N[C@@H](Cc1ccccc1)C(=O)N[C@@H](C)C(=O)N[C@@H](Cc1c[nH]cn1)C(=O)N[C@H](C(N)=O)C(C)C` [compound 324] (H-DNPSLSIDLPLLLLRTLLELEKTQSQRERAEQNAQIFAHV-NH2; N-terminus assumed), the EC50 at CRF1R was ≥ 1 µM; at CRF2R it was 0.0172 µM. Further, the maximal effect (Emax) at CRF1R was found to be 46.6%; at CRF2R, 100%.

Take `CC[C@H](C)[C@H](NC(=O)[C@H](CC(N)=O)NC(=O)[C@H](C)NC(=O)[C@H](CC(N)=O)NC(=O)[C@H](CCC(N)=O)NC(=O)[C@H](CCC(=O)O)NC(=O)[C@H](C)NC(=O)[C@H](CCCNC(=N)N)NC(=O)[C@H](CCC(=O)O)NC(=O)[C@H](CCCNC(=N)N)NC(=O)[C@H](CCC(N)=O)NC(=O)[C@H](CO)NC(=O)[C@H](CCC(N)=O)NC(=O)[C@@H](NC(=O)[C@H](CCCCN)NC(=O)[C@H](CCC(=O)O)NC(=O)[C@H](CC(C)C)NC(=O)[C@H](CCC(=O)O)NC(=O)[C@H](CC(C)C)NC(=O)[C@H](CC(C)C)NC(=O)[C@@H](NC(=O)[C@H](CCCNC(=N)N)NC(=O)[C@H](CC(C)C)NC(=O)[C@H](CC(C)C)NC(=O)[C@H](CC(C)C)NC(=O)[C@H](CC(C)C)NC(=O)[C@@H]1CCCN1C(=O)[C@H](CC(C)C)NC(=O)[C@H](CC(=O)O)NC(=O)[C@@H](NC(=O)[C@H](CO)NC(=O)[C@H](CC(C)C)NC(=O)[C@H](CO)NC(=O)[C@@H]1CCCN1C(=O)[C@H](CC(N)=O)NC(=O)[C@@H](N)CC(=O)O)[C@@H](C)CC)[C@@H](C)O)[C@@H](C)O)C(=O)N[C@@H](Cc1ccccc1)C(=O)N[C@@H](C)C(=O)N[C@@H](CC(N)=O)C(=O)N[C@H](C(N)=O)C(C)C` [compound 326] (H-DNPSLSIDLPLLLLRTLLELEKTQSQRERAEQNANIFANV-NH2; N-terminus assumed): on CRF1R, the EC50 was ≥ 1 µM and the Emax stood at 30.1%. Moreover, at CRF2R, the EC50 was 0.0337 µM and the Emax was found to be 100%.

In the case of `CC[C@H](C)[C@H](NC(=O)[C@H](CCC(N)=O)NC(=O)[C@H](C)NC(=O)[C@H](CC(N)=O)NC(=O)[C@H](CCC(N)=O)NC(=O)[C@H](CCC(=O)O)NC(=O)[C@H](C)NC(=O)[C@H](CCCNC(=N)N)NC(=O)[C@H](CCC(=O)O)NC(=O)[C@H](CCCNC(=N)N)NC(=O)[C@H](CCC(N)=O)NC(=O)[C@H](CO)NC(=O)[C@H](CCC(N)=O)NC(=O)[C@@H](NC(=O)[C@H](CCCCN)NC(=O)[C@H](CCC(=O)O)NC(=O)[C@H](CC(C)C)NC(=O)[C@H](CCC(=O)O)NC(=O)[C@H](CC(C)C)NC(=O)[C@H](CC(C)C)NC(=O)[C@@H](NC(=O)[C@H](CCCNC(=N)N)NC(=O)[C@H](CC(C)C)NC(=O)[C@H](CC(C)C)NC(=O)[C@H](CC(C)C)NC(=O)[C@H](CC(C)C)NC(=O)[C@@H]1CCCN1C(=O)[C@H](CC(C)C)NC(=O)[C@H](CC(=O)O)NC(=O)[C@@H](NC(=O)[C@H](CO)NC(=O)[C@H](CC(C)C)NC(=O)[C@H](CO)NC(=O)[C@@H]1CCCN1C(=O)[C@H](CC(N)=O)NC(=O)[C@@H](N)CC(=O)O)[C@@H](C)CC)[C@@H](C)O)[C@@H](C)O)C(=O)N[C@@H](Cc1ccccc1)C(=O)N[C@@H](C)C(=O)N[C@@H](CCC(N)=O)C(=O)N[C@H](C(N)=O)C(C)C` [compound 327] (H-DNPSLSIDLPLLLLRTLLELEKTQSQRERAEQNAQIFAQV-NH2; N-terminus assumed), the Emax was found to be 36.5% on CRF1R and 100% at CRF2R.

As to `CC[C@H](C)[C@H](NC(=O)[C@H](Cc1c[nH]cn1)NC(=O)[C@H](C)NC(=O)[C@H](CC(N)=O)NC(=O)[C@H](CCC(N)=O)NC(=O)[C@H](CCC(=O)O)NC(=O)[C@H](C)NC(=O)[C@H](CCCNC(=N)N)NC(=O)[C@H](CCC(=O)O)NC(=O)[C@H](CCCNC(=N)N)NC(=O)[C@H](CCC(N)=O)NC(=O)[C@H](CO)NC(=O)[C@H](CCC(N)=O)NC(=O)[C@@H](NC(=O)[C@H](CCCCN)NC(=O)[C@H](CCC(=O)O)NC(=O)[C@H](CC(C)C)NC(=O)[C@H](CCC(=O)O)NC(=O)[C@H](CC(C)C)NC(=O)[C@H](CC(C)C)NC(=O)[C@@H](NC(=O)[C@H](CCCNC(=N)N)NC(=O)[C@H](CC(C)C)NC(=O)[C@H](CC(C)C)NC(=O)[C@H](CC(C)C)NC(=O)[C@H](CC(C)C)NC(=O)[C@@H]1CCCN1C(=O)[C@H](CC(C)C)NC(=O)[C@H](CC(=O)O)NC(=O)[C@@H](NC(=O)[C@H](CO)NC(=O)[C@H](CC(C)C)NC(=O)[C@H](CO)NC(=O)[C@@H]1CCCN1C(=O)[C@H](CC(N)=O)NC(=O)[C@@H](N)CC(=O)O)[C@@H](C)CC)[C@@H](C)O)[C@@H](C)O)C(=O)N[C@@H](Cc1ccccc1)C(=O)N[C@@H](C)C(=O)N[C@@H](Cc1c[nH]cn1)C(=O)N[C@H](C(N)=O)C(C)C` [compound 328] (H-DNPSLSIDLPLLLLRTLLELEKTQSQRERAEQNAHIFAHV-NH2; N-terminus assumed), on CRF1R, the EC50 is ≥ 1 µM and the maximal response (Emax) turned out to be 30.7%. At CRF2R, the EC50 is 0.0117 µM and the Emax was 95.7%.

For the compound `CC[C@H](C)[C@H](NC(=O)[C@H](CCCNC(=N)N)NC(=O)[C@H](C)NC(=O)[C@H](CC(N)=O)NC(=O)[C@H](CCC(N)=O)NC(=O)[C@H](CCC(=O)O)NC(=O)[C@H](C)NC(=O)[C@H](CCCNC(=N)N)NC(=O)[C@H](CCC(=O)O)NC(=O)[C@H](CCCNC(=N)N)NC(=O)[C@H](CCC(N)=O)NC(=O)[C@H](CO)NC(=O)[C@H](CCC(N)=O)NC(=O)[C@@H](NC(=O)[C@H](CCCNC(=N)N)NC(=O)[C@H](C)NC(=O)[C@H](CC(C)C)NC(=O)[C@H](CCC(=O)O)NC(=O)[C@H](CC(C)C)NC(=O)[C@H](CC(C)C)NC(=O)[C@@H](NC(=O)[C@H](CCCNC(=N)N)NC(=O)[C@H](CC(C)C)NC(=O)[C@H](CC(C)C)NC(=O)[C@H](Cc1ccccc1)NC(=O)[C@H](CC(C)C)NC(=O)[C@@H]1CCCN1C(=O)[C@H](CC(C)C)NC(=O)[C@H](CC(=O)O)NC(=O)[C@@H](NC(=O)[C@H](CO)NC(=O)[C@H](CC(C)C)NC(=O)[C@H](CO)NC(=O)[C@@H]1CCCN1C(=O)[C@H](CC(N)=O)NC(=O)[C@@H](N)CC(=O)O)[C@@H](C)CC)[C@@H](C)O)[C@@H](C)O)C(=O)N[C@@H](Cc1ccccc1)C(=O)N[C@@H](C)C(=O)N[C@@H](CCCNC(=N)N)C(=O)N[C@H](C(N)=O)C(C)C` [compound 329] (H-DNPSLSIDLPLFLLRTLLELARTQSQRERAEQNARIFARV-NH2; N-terminus assumed), the Emax at CRF1R came to 98.4%; at CRF2R, 98.3%.

What is called Emax is the size of the effect at its maximum, as opposed to the concentration needed. One may read the EC50 as the concentration at which the effect is half-maximal.
